Test results as given in patent US20220175761A1, “BI-LIGAND DRUG CONJUGATE AND USE THEREOF” (COHERENT BIOPHARMA (SUZHOU), LIMITED, priority 2019, published 2022).
Numbered stars: 1 amine (or outer) side, 2 acyl side, 3 side chain; on linkers, the order of the positions; unused ones are H or OH. Bridge positions count the residues as written; N and C are the ends. Square brackets hold non-standard residues; d marks the D form. Side chains are listed from the residue outwards. Peptide text beside a SMILES is read from it. I, II: the chains in the order shown. * marks the point of attachment. EuK = O=C(O)CC[C@H](NC(=O)N[C@@H](CCCCN*)C(=O)O)C(=O)O; Pteroyl = Nc1nc2ncc(CNc3ccc(C(=O)*)cc3)nc2c(=O)[nH]1; Dolaproine = CO[C@@H]([C@@H]1CCCN1)[C@@H](C)C(=O)O; Dil = CC[C@H](C)[C@H](NC)[C@@H](CC(=O)O)OC; X3 = O=C1CC([*:2])C(=O)N1CCCCCC(=O)[*:1]; γGlu = O=C(O)[C@H](CCC(=O)[*:2])N[*:1]; PABC = O=C(OCc1ccc(N[*:1])cc1)[*:2]; X1 = C[C@@H](N*)[C@@H](O)c1ccccc1; X2 = O=C(Cc1ccc(CN[*:1])cc1)[*:2]; Cit = NC(=O)NCCC[C@H](N)C(=O)O; NMeV = CN[C@H](C(=O)O)C(C)C; CO = O=C([*:1])[*:2]

Key:
[1] = system: A549, Hela, SCLC-21H, U-2 OS, T-47D and NCI-H460 tumor cell lines; assay: Inhibition of tumor cell expansion, CCK8 (CB-18G); assay type: cell-based, human
Method: Cell lines: A549 human lung cancer cells, Hela human cervical cancer cells, SCLC-21H small cell lung cancer cells, U-2 OS human osteosarcoma cells, T-47D human breast cancer cells and NCI-H460 human lung cancer cells
The cells were prepared in advance, digested with trypsin, collected and counted; diluted with a complete cell culture medium, A549 cells, Hela cells, SCLC-21H cells and U-2 OS cells were plated at a density of 2×10^4 cells/ml, and T-47D cells and NCI-H460 cells were plated at a density of 3×10^4 cells/ml in 96-well plates; to each well of the 96-well plates, 100 μl of the diluted cell solution was added; and negative control and blank control wells were set on each plate. The 96-well plates added with the cells were placed in an incubator at 37° C., 5% CO2 for culturing overnight.
The samples were diluted with a culture medium to desired concentrations (see Table 15). […]
(§1) To each well, 15 μl (10% of the liquid volume in a well) of a color developing solution from CCK-8 was added; the plates were incubated at 37° C. for an appropriate time (try to keep the OD value in the range of 1.0-2.0); the covers of the 96-well plates were removed, and the plates were read at 450 nm on a microplate reader (Molecular Devices Spectra MAX Plus). […]

[2] = system: KB, PC-9, SPC-A1, CALU-3 and DU145 cell lines (CDX tumor models); assay: Pharmacodynamic study of CB-18G in CDX models; assay type: in vivo, BALB/c-nude mice; settings: tail vein injection
Method: CB-18G lyophilized powder was weighed, dissolved with PBS and prepared into a sample mother solution, and the mother solution was diluted with a physiological saline for injection to a sample solution with a working concentration for later use.
Main cell lines: KB human oral epidermoid carcinoma cells, PC-9 human lung cancer cells, SPC-A1 human lung adenocarcinoma cells, CALU-3 human lung adenocarcinoma cells and DU145 human prostate cancer cells
Model construction: The cells were resuscitated, cultured, collected and counted, and the cell solution was subcutaneously injected into the right flank of BALB/c-nude mice. When the tumor grew and expanded to 80-160 mm^3, grouping and administration were performed, or rapidly expanded tumor masses were transferred and injected to mice for scale up.
(§2) Grouping: When the tumor grew to about 80-160 mm^3 on average, a grouping was performed, and a model control group and different doses of administration groups were set.
(§3) Administration: The mice were administrated via tail vein injection.
(§4) The weight of mice and the long diameter (a) and short diameter (b) of tumor mass were measured twice a week. The formula for the calculation of tumor volume (TV) is: TV=½×a×b^2.

[3] = system: KB, PC-9 and DU145 cell lines (CDX tumor models); assay: Pharmacodynamic study of CB-20B in CDX models; assay type: in vivo, BALB/c-nude mice; settings: tail vein injection
Method: CB-20B lyophilized powder was weighed, dissolved with PBS and prepared into a sample mother solution, and the mother solution was diluted with a physiological saline for injection to a sample solution with a working concentration for later use.
Main cell lines: KB human oral epidermoid carcinoma cells, PC-9 human lung cancer cells and DU145 human prostate cancer cells.
Model construction: The cells were resuscitated, cultured, collected, counted, and subcutaneously injected into the right flank of BALB/c-nude mice. When the tumor grew and expanded to 80-160 mm^3, grouping and administration were performed, or rapidly expanded tumor masses were transferred and injected to mice for scale up.
as §2, §3, §4

[4] = system: A549, HuH-7, KB, LNcap, DU145 and T-47D tumor cell lines; assay: Inhibition of tumor cell expansion, CCK8 (CB-20B); assay type: cell-based, human
Method: Cell lines: A549 human lung cancer cells, HuH-7 human liver cancer cells, KB human oral epidermoid carcinoma cells, LNCaP human prostate cancer cells, DU145 human prostate cancer cells and T-47D human breast cancer cells
The cells were prepared in advance, digested with trypsin, collected and counted; diluted with a complete cell culture medium, A549 cells, HuH-7 cells, KB cells and DU145 cells were plated at a density of 2×10^4 cells/ml, T-47D cells were plated at a density of 1×10^5 cells/ml, and LNCaP cells were plated at a density of 6×10^4 cells/ml in 96-well plates; 100 μl of the diluted cell solution was added to each well; and negative control and blank control wells were set on each plate. The 96-well plates added with the cells were placed in an incubator at 37° C., 5% CO2 for culturing overnight.
The samples were diluted with a culture medium to desired concentrations (see Table 11). […]
as §1

Compound	inhibitory effect on growth and expansion of tumor cell lines ([1]; 72 hours, CCK-8)	IC50 compared between cell lines ([1]; Hela versus NCI-H460)	inhibitory effect in CDX tumor models (tumor volume) [2]	inhibitory effect in CDX tumor models (tumor volume) [3]	inhibitory effect on growth and expansion of tumor cell lines ([4]; 72 hours, CCK-8)	IC50 compared between cell lines ([4]; T-47D, LNcap, KB, HuH-7 and DU145 versus A549)
CCCC(=O)N[C@@H](Cc1ccccc1)C(=O)N[C@H]1CSSC[C@@H](C(=O)N[C@H](C(=O)N[C@@H](CCCCNC(=O)[C@H](CCC(=O)O)NC(=O)CCOCCOCCOCCOCCNC(=O)[C@H](CCC(=O)O)NC(=O)[C@H](CSC2CC(=O)N(CCCCCC(=O)N[C@H](C(=O)NC(CCCNC(N)=O)C(=O)Nc3ccc(COC(=O)N(C)[C@H](C(=O)N[C@H](C(=O)N(C)[C@@H]([C@@H](C)CC)[C@@H](CC(=O)N4CCC[C@H]4[C@H](OC)[C@@H](C)C(=O)N[C@H](C)[C@@H](O)c4ccccc4)OC)C(C)C)C(C)C)cc3)C(C)C)C2=O)NC(=O)CC[C@H](NC(=O)c2ccc(NCc3cnc4[nH]c(N)nc(=O)c4n3)cc2)C(=O)O)C(N)=O)[C@@H](C)O)NC(=O)[C@H]([C@@H](C)O)NC(=O)[C@H](CCCCN)NC(=O)[C@H](Cc2c[nH]c3ccccc23)NC(=O)[C@H](Cc2ccc(O)cc2)NC1=O (stereo partly drawn) [CB-18G]	has an inhibitory effect	significantly lower	good inhibitory effect			
CC[C@H](C)[C@@H]([C@@H](CC(=O)N1CCC[C@H]1[C@H](OC)[C@@H](C)C(=O)N[C@H](C)[C@@H](O)c1ccccc1)OC)N(C)C(=O)[C@@H](NC(=O)[C@H](C(C)C)N(C)C(=O)OCc1ccc(NC(=O)[C@H](CCCNC(N)=O)NC(=O)[C@@H](NC(=O)CCCCCN2C(=O)CC(SC[C@H](NC(=O)[C@H](CC(=O)O)NC(=O)[C@H](CC(=O)O)NC(=O)Cc3ccc(CNC(=O)NCCCC[C@H](NC(=O)N[C@@H](CCC(=O)O)C(=O)O)C(=O)O)cc3)C(=O)N[C@@H](CCCCNC(=O)CC[C@H](NC(=O)c3ccc(NCc4cnc5[nH]c(N)nc(=O)c5n4)cc3)C(=O)O)C(N)=O)C2=O)C(C)C)cc1)C(C)C (stereo partly drawn) [CB-20B] (I: V[Cit][PABC][NMeV]V[Dil][Dolaproine]-X1 / II: {EuK-CO}-[X2]DDCK([γGlu-Pteroyl])-NH2; linker I:N-II:4 via X3)				good inhibitory effect	has an inhibitory effect	significantly lower
